Data taken from patent US11376307B2, “Compositions and methods of treating cancer with glycomimetic peptides” (SUSAVION BIOSCIENCES, INC., priority 2018, dated 2022).
Entries after “also recorded” stand apart in the source; their conditions may differ. Positions of bridges follow the written chain, without caps; N, C: chain ends. Chains are numbered I, II in the order given.

Key:
recombinant rat CLEC10A = target: T1, recombinant rat CLEC10A (Rattus norvegicus, UniProt P49301); experiment: Inhibition of binding of multivalent GalNAc-PAA
T1 construct: The extracellular domains of receptors, which were fused with the Fc domain of immunoglobulin IgG; purchased R&D Systems
T1 sequence (P49301 59-306 limits assumed): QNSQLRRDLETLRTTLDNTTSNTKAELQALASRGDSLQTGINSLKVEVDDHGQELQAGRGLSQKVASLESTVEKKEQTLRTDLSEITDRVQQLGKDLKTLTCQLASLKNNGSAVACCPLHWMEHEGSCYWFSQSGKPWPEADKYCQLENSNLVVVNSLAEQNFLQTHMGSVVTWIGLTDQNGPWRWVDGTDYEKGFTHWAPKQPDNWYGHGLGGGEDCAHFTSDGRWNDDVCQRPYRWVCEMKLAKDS
Experimental: FIGS. 3A-3D. sv6D as a mimetic of GalNAc. (FIG. 3A) Inhibition by sv6D of binding of multivalent GalNAc-PAA (GlycoTech Corp., Frederick, Md.) to recombinant rat CLEC10A and human ASGPR-1. The reaction mixture included approximately 200 pmoles of biotinylated GalNc-PAA and increasing concentrations of peptide. The figure includes average values from 3 independent experiments. (FIG. 3B) Biotinylated sv6D or GalNAc-PAA were incubated with rabbit antiserum raised against the 6D sequence (NQHTPR) (SEQ ID NO:1) conjugated to keyhole limpet hemocyanin (KLH). Binding was detected with streptavidin-peroxidase conjugate. Similar data were obtained in 2 experiments. (FIG. 3C) Inhibition by EGTA of binding of sv6D (pattern) or svL4 (solid) to CLEC10A and ASGPR-1, respectively. EGTA (1 mM) was added to the final concentrations indicated to assays. Retention of bound CLEC10A was determined by incubation with biotinylated anti-CLEC10A (goat IgG, R&D Systems) and detection with streptavidin-peroxidase conjugate (light grey circle). Similar data were obtained in 3 experiments. (FIG. 3D) Binding of svL4 and sv6D to human recombinant CLEC10A and ASGPR-1 as a function of concentration of peptide in the assay. The figure is representative of 4 separate assays.
To further determine whether sv6D interacts with the actual sugar binding site, the ability of sv6D to compete with GalNAc-PAA for binding was assayed.

[1] = Antigenicity assay of mouse sera; design: species or system mice; settings: alternate-day injections for 3 months, 1 nmol/g
Experimental: FIG. 10. Test for antigenicity of svL4 and sv6D. Anti-sera were generated in rabbits against KLH-conjugates of the sequences of svL4 or sv6D and diluted 1:10. Mouse sera were collected after alternate-day injections of svL4 over 3 months, diluted 1:1 with PBS and added to protein-A/G-coated wells. Biotinylated svL4 or sv6D was added to wells and bound peptide was detected with a streptavidin-peroxidase conjugate. The figure includes average values for sera from 8 treated mice in each group assayed separately.
Antigenicity Assay The sequence of one arm of svL4 or sv6D was conjugated to keyhole limpet hemocyanin (KLH) and injected into rabbits at two-week intervals (total of 3 injections) (New England Peptide, Inc., Gardner, Mass.). Two weeks after the final injection, sera were prepared. Mice were injected with a peptide every other day over a period of 3 months (total ˜45 injections), blood was then collected by cardiac puncture and sera were prepared. Rabbit serum was diluted 1:10, whereas mouse serum was diluted 1:1 or 1:5 with PBS containing 0.05% Tween-20 (PBST). Sera were incubated in microtiter wells coated with protein A/G (Pierce) for 90 min. The wells were washed three times with PBST, and then incubated with 50 μL of 1 μM biotinylated svL4 or sv6D for 1 h. […]

peritoneal immune cells = experiment: Expansion of peritoneal cells after subcutaneous injection, flow cytometry; format: in vivo, C57BL/6 mice; settings: for Change in mature, active peritoneal immune cell populations: 1 nmol/g s.c. on days 0, 2, 4, cells 24 h after each injection
Experimental: FIGS. 7A-7D. Expansion of peritoneal cells in C57BL/6 mice. Mice were injected subcutaneously at a dose of 1 nmol/g body weight of svL4, sv6D or svC1. Cells in each population recovered in a peritoneal lavage are expressed as cell counts (in thousands). Cells from three mice in each treatment group were pooled for analysis. The number of cells in each population was normalized to the average recovery of total cells from all groups. For each cell type, the left-hand, middle and right-hand set of bars represent samples from mice treated with svL4, sv6D or svC1, respectively. Mice were injected on days 0, 2 and 4, and cells were collected 24 h after each injection. Day 1, open bar; day 3, grey bar; day 5, black bar. Populations that express activation markers are indicated by an asterisk.
Flow Cytometry Healthy C57BL/6 male mice, 10 weeks old, were injected subcutaneously with peptides on alternate days. Peritoneal cells were isolated from mice 24 h after dosing by injecting ice cold PBS (containing 3% FBS) into the peritoneal cavity, gently massaging the abdomen, and then collecting the fluid, which was transferred into K2EDTA-treated tubes for evaluation of specific biomarkers. Cells from three mice in each group were pooled, counted and divided among FACS tubes (1×10^6 cells per tube). Cells were washed once in PBS containing 3% FBS, then stained with 0.25 to 1 μg of fluorescently conjugated antibody per 10^6 cells in 100 μL of buffer as recommended by the manufacturer (Table 1).
Cells were incubated with the antibodies for 30 min at 4° C. in the dark. Following staining, the cells were washed two times with PBS/3% FBS and immediately analyzed with a MACSQuant flow cytometer (Miltenyi Biotech, Inc., San Diego, Calif.). Compensation was performed using single stain tubes for each color present in the analysis as well as an unstained control sample. Collection of flow cytometric data and analysis with FlowJo software, version 10.0.6 (FlowJo, LLC, Ashland, Oreg.) were performed by Biomodels LLC (Watertown, Mass.).
To examine whether increases occurred in mature immune cells, peritoneal cells from Balb/c and C57BL/6 mice were analyzed by flow cytometry after cells were stained with the markers listed in Table 1. […] To explore this observation more extensively, svL4 or sv6D was injected into C57BL/6 mice on day 0, 2 or 4. Peritoneal cells were examined by flow cytometry 24 h after each injection. Shown in FIGS. 7A-7D are results expressed as cell counts for F4/80 CD11b CD86 (mature, active macrophages); CD11c (DCs); CD11c CD86 (activated DCs); CD4 CD69 (activated T cells); CD8 CD69 (activated cytotoxic T cells); NK1.1 CD3^+ CD69 (activated NKT cells); NK1.1 CD3^− CD69 (activated NK cells); CD19 (B cells); and CD19 CD73 CD80 CD273 (memory B cells). The numbers of these mature, activated cells continued to increase with each injection.

Row | Substance | Inhibition of binding of GalNAc-PAA to CLEC10A (recombinant rat CLEC10A; about 200 pmoles biotinylated GalNAc-PAA, increasing peptide) | Avidity relative to multivalent GalNAc-PAA (recombinant rat CLEC10A; from competition experiment) | Antibodies that bind the peptides in mouse sera (antigenicity) [1] | Change in mature, active peritoneal immune cell populations (peritoneal immune cells) | Overall peritoneal cell responses compared with svL4 (peritoneal immune cells; DCs, T cells, NKT cells, days 0, 2, 4) | Injection after which a significant increase in peritoneal cells occurred (peritoneal immune cells; 1 nmol/g s.c.) | Response of CD19+ B cells (peritoneal immune cells; compared with sv6D)
1 | I: H-NQHTPRGGGSKK-NH2 / II: H-NQHTPRGGGSK / III: H-NQHTPRGGGS / IV: H-NQHTPRGGGS (amide I:11-IV:C, I:12-II:C, II:11-III:C) [sv6D] | inhibited | over an order of magnitude greater | negative; also recorded: not antigenic | several-fold increases | greater than those to svL4 | – | –
2 | I: H-VQATQSNQHTPRGGGSKK-NH2 / II: H-VQATQSNQHTPRGGGSK / III: H-VQATQSNQHTPRGGGS / IV: H-VQATQSNQHTPRGGGS (amide I:17-IV:C, I:18-II:C, II:17-III:C) [svL4] | – | – | negative | several-fold increases | – | only after the second injection | responded more strongly
